Experiments:
Assay type in all cases: in vivo
[1] = test system: VEGF-induced retinal vascular permeability; assay: VEGF-induced retinal vascular permeability in the rat (Evans blue), intravitreal injection; details: 10 μl intravitreal
Experimental: METHODS: Adult Sprague-Dawley rats were anesthetized with intramuscular ketamine/xylazine and their pupils dilated with topical cycloplegics. Rats were randomly assigned to intravitreal injection groups of 0% 0.3%, 1.0%, and 3.0% RTKI and a positive control. Ten μl of each compound was intravitreally injected in each treatment eye (n=6 eyes per group). Three days following first intravitreal injection, all animals received an intravitreal injection of 10 μl 1400 ng hr VEGF in both eyes. Twenty-four hours post-injection of VEGF, intravenous infusion of 3% Evans blue dye was performed in all animals, where 50 mg/kg of Evans blue dye was injected via the lateral tail vein during general anesthesia. After the dye had circulated for 90 minutes, the rats were euthanized. The rats were then systemically perfused with balanced salt solution, and then both eyes of each rat were immediately enucleated and the retinas harvested using a surgical microscope. After measurement of the retinal wet weight, the Evans blue dye was extracted by placing the retina in a 0.2 ml formamide (Sigma) and then the homogenized and ultracentrifuged. Blood samples were centrifuged and the plasma diluted 100 fold in formamide. For both retina and plasma samples, 60 μl of supernatant was used to measure the Evans blue dye absorbance (ABS) with at 620/740 nm. The blood-retinal barrier breakdown and subsequent retinal vascular permeability as measured by dye absorbance were calculated as means ±s.e.m. of net ABS/wet weight/plasma ABS. A two-tailed Student's t-test were used for pair wise comparisons between OS and OD eyes in each group. One way ANOVA was used to determine an overall difference between treatment means, where P≦0.05 was considered significant.

[2] = test system: existing laser-induced choroidal neovascularization (CNV) in the mouse; assay: Mouse laser-induced CNV, regression paradigm, oral gavage from day 7; details: 3 mg/kg/day, oral from day 7
[3] = test system: preretinal neovascularization (NV) in the rat model of oxygen-induced retinopathy; assay: Rat model of oxygen-induced retinopathy (OIR), single intravitreal injection
Text: METHODS: Pregnant Sprague-Dawley rats were received at 14 days gestation and subsequently gave birth on Day 22±1 of gestation. Immediately following parturition, pups were pooled and randomized into separate litters (n=17 pups/litter), placed into separate shoebox cages inside oxygen delivery chamber, and subjected to an oxygen-exposure profile from Day 0-14 postpartum. Litters were then placed into room air from Day 14/0 through Day 14/6 (days 14-20 postpartum). Additionally on Day 14/0, each pup was randomly assigned as an oxygen-exposed control or into various treatment groups. For those randomized into an injection treatment group: one eye received a 5 μl intravitreal injection of 0.1%, 0.3%, 0.6%, or 1% RTKi and the contralateral eye received a 5 μl intravitreal injection of vehicle. At Day 14/6 (20 days postpartum), all animals in both studies were euthanized.
(§1) Immediately following euthanasia, retinas from all rat pups were harvested, fixed in 10% neutral buffered formalin for 24 hours, subjected to ADPase staining, and fixed onto slides as whole mounts. Digital images were acquired from each retinal flat mount that was adequately prepared. Computerized image analysis was used to obtain a NV clockhour score from each readable sample. Each clockhour out of 12 total per retina was assessed for the presence or absence of preretinal NV. Statistical comparisons using median scores for NV clockhours from each treatment group were utilized in nonparametric analyses. Each noninjected pup represented one NV score by taking the average value of both eyes and was used in comparisons against each dosage group. Because the pups were randomly assigned and no difference was observed between oxygen-exposed control pups from all litters, the NV scores were combined for all treatment groups. P≦0.05 was considered statistically significant.

[4] = test system: laser-induced choroidal neovascularization (CNV) in the mouse; assay: Mouse laser-induced choroidal neovascularization (CNV), prevention, intravitreal injection
Experimental: Methods. CNV was generated by laser-induced rupture of Bruch's membrane. Briefly, 4 to 5 week old male C57BL/6J mice were anesthetized using intraperitoneal administration of ketamine hydrochloride (100 mg/kg) and xylazine (5 mg/kg) and the pupils of both eyes dilated with topical ocular instillation of 1% tropicamide and 2.5% Mydfin®. One drop of topical cellulose (Gonioscopic®) was used to lubricate the cornea. A hand-held cover slip was applied to the cornea and used as a contact lens to aid visualization of the fundus. Three to four retinal burns were placed in randomly assigned eye (right or left eye for each mouse) using the Alcon 532 nm EyeLite laser with a slit lamp delivery system. The laser burns were used to generate a rupture in Bruch's membrane, which was indicated opthalmoscopically by the formation of a bubble under the retina. Only mice with laser burns that produced three bubbles per eye were included in the study. Burns were typically placed at the 3, 6, 9 or 12 o'clock positions in the posterior pole of the retina, avoiding the branch retinal arteries and veins.
Each mouse was randomly assigned into one of the following treatment groups: noninjected controls, sham-injected controls, vehicle-injected mice, or one of three RTKi-injected groups. […]

[5] = test system: preretinal neovascularization (NV) in the rat OIR model; assay: Rat OIR model, oral gavage
Experimental: as §1
METHODS: Pregnant Sprague-Dawley rats were received at 14 days gestation and subsequently gave birth on Day 22±1 of gestation. Immediately following parturition, pups were pooled and randomized into separate litters (n=17 pups/litter), placed into separate shoebox cages inside oxygen delivery chamber, and subjected to an oxygen-exposure profile from Day 0 to Day 14 postpartum. Litters were then placed into room air from Day 14/0 through Day 14/6 (days 14-20 postpartum). Additionally on Day 14/0, each pup was randomly assigned as oxygen-exposed controls, vehicle treated, or drug-treated at 1.5, 5, 10 mg/kg, p.o., BID. At Day 14/6 (20 days postpartum), all animals in both studies were euthanized and retina whole mounts were prepared as described in Example 1 above.

Compound: Cc1ccc(F)c(NC(=O)Nc2ccc(-c3cccc4[nH]nc(N)c34)cc2)c1 [Compound 86, N-[4-[3-amino-1H-indazol-4-yl]phenyl]-N′-(2-fluoro-5-methylphenyl)urea]
- decrease of retinal vascular permeability vs vehicle-injected eyes ([1]; 0.3% RTKi): 50%
- decrease of retinal vascular permeability vs vehicle-injected eyes ([1]; 1.0% RTKi): 61%
- decrease of retinal vascular permeability vs vehicle-injected eyes ([1]; 3% RTKi): 53%
- regression of existing CNV [2]: did not show a significant regression of existing CNV
- efficacy against preretinal NV ([3]; 0.1% treated eyes): Efficacy was not observed
- inhibition of preretinal NV vs vehicle-injected and control noninjected eyes ([3]; 0.3-1% RTKi): significant inhibition of preretinal NV
- inhibition of preretinal neovascularization (NV) ([3]; single intravitreal injection, rat OIR (FIG. 1)): inhibits preretinal neovascularization (NV)
- CNV vs vehicle injected eyes ([4]; 0.3% RTKi, 5 ul intravitreal (P=0.082)): marginal statistical difference
- inhibition of laser-induced CNV ([4]; single intravitreal injection, mouse (FIG. 3)): inhibits laser-induced choroidal neovascularization (CNV)
- decrease in NV ([5]; 3 mg/kg/day p.o.): did not have a significant decrease in NV
- inhibition of preretinal NV vs vehicle-treated pups ([5]; 10 mg/kg/day p.o.): significant inhibition of preretinal NV
- inhibition of preretinal NV ([5]; 20 mg/kg/day p.o.): complete inhibition of preretinal NV
- prevention of preretinal neovascularization (NV) ([5]; oral gavage, rat OIR (FIG. 2)): prevents preretinal neoavascularization (NV)
